Results taken from patent publication US11839658B2, “Aminoglycoside derivatives and nano-assemblies thereof, including those with quorum sensing inhibitory function” (priority 2017, dated 2023).
In brackets after ≈: the same amount, converted by molar mass.

Legend:
[1] = test system: Pyocyanin released from PA14 bacteria (wild type); experiment: Pyocyanin assay on Pseudomonas aeruginosa; format: cell-based; conditions: 18 μg/mL Farnesal or Farnesol, 16 h, n=9
Procedure: Pyocyanin assay was used to quantify the amount of Pyocyanin molecule released from PA14 bacteria (wild type) which were grown aerobically for 16 hours. The Pyocyanin assay was performed as follows:
A single colony of PA14 was removed from agar plates after 16 hours of growth at 37° C. and transferred into 25 mL Erlenmeyer flasks with 10 mL of PPGAS (proteose peptone glucose ammonium salt medium which is composed of (1 g/L NH4Cl, 1.5 g/L KCl, 19 g/L Tris-HCl, 10 g/L peptone, glucose 5 g/L and 0.1 g/L MgSO4·7H2O, the medium was adjusted to pH 7.4, and sterilized before use). Following 16 hours of aerobic growth with shaking at 200 rpm and 37° C., cultures were centrifuged at 7.450 g, washed twice with 10 mL of fresh PPGAS medium, and resuspended to a final volume of 5 mL solution. Cultures were then diluted to a final OD600 of 0.02 and distributed into 24 well-plates, 1.5 mL each well.
Compounds Farnesal and Farnesol were diluted in DMSO, then added to wells containing PA14 bacteria, in 1:100 dilutions with a final DMSO concentration of 1% (v/v), so that the final concentration of Farnesal was 18 μg/mL, and of Farnesol was 18 μg/mL. […]
All cultures were incubated for an additional 16 h under aerobic conditions as mentioned above. […] OD520 was measured in the aqueous phase. […]

[2] = Dynamic light scattering (DLS): zeta-potential, mean diameter, PDI of nano-assemblies; format: physicochemical
E. coli = conditions: literature value; cited from earlier work
[3] = test system: 24 hours old PA14 biofilm; experiment: Minimum Biofilm Eradicating Concentration (MBEC) assay; format: cell-based, Pseudomonas aeruginosa; conditions: 24 h old PA14 biofilm treated 24 hours
Procedure: Minimum Biofilm Eradicating Concentration (MBEC) assay was used to determine the minimum concentration of active agents at which a 24 hours old PA14 biofilm is completely eradicated. The MBEC assay was performed as follows: […]
The 96 well-plates were then kept at 37° C. without shaking for 24 hours to allow the forming of biofilm. Afterwards, the planktonic bacteria were removed, and the 24 hours old biofilm was washed twice with PBS, then fed with fresh PPGAS medium, and ready for the assay. […]
All cultures were incubated for an additional 24 hours at 37° C. without shaking. […] All cultures were then measured OD650, and the biofilm is considered to be completely eradicated once the resulting OD650 is equal or lower than OD650 of PPGAS medium.

[4] = test system: P. aeruginosa strain PA14 (wild type); experiment: MIC assay against Pseudomonas aeruginosa; format: cell-based; conditions: PA14, read-out: MIC-90 against PA14
Procedure: The minimum inhibitory concentration (MIC) of the of the tobramycin containing nano-assemblies of example 2 against the P. aeruginosa strain PA14 (wild type) was tested and compared to known MIC values of tobramycin.

| SMILES | percentage inhibition of released Pyocyanin vs PA14 wt control [1] [%] | zeta-potential [2] [mV] | MIC-90 against E. coli (Dienstag and Neu) (E. coli) [µg/mL] | Tobramycin concentration needed for complete biofilm eradication (MBEC) [3] [µg/mL] | MIC90 [4] [µg/mL] |
| --- | --- | --- | --- | --- | --- |
| CC(C)=CCCC(C)=CCCC(C)=CC=O [Farnesal] | 5.85±3.10 | −33.8±0.5 |  |  |  |
| CC(C)=CCCC(C)=CCCC(C)=CCO [Farnesol] | 12.29±7.35 |  |  |  |  |
| NC[C@H]1O[C@H](O[C@H]2[C@H](O)[C@@H](O[C@H]3O[C@H](CO)[C@@H](O)[C@H](N)[C@H]3O)[C@H](N)C[C@@H]2N)[C@H](N)C[C@@H]1O [Tobramycin] |  |  | 6.25 (≈ 13.4 µM) | ≥ 100 | 6.25 to 12.5 (≈ 13.4 to 26.7 µM) |
